Results on 4 compounds are retold here after patent publication US12383534B2, “Methods for treating cancer” (REGENTS OF THE UNIVERSITY OF MINNESOTA, priority 2021, dated 2025).

Assay [1] relates to NCC-CDS-X1 cells (CIC-DUX4 sarcoma cell line). As to the kind of experiment: Cell viability (ATP) assay in NCC-CDS-X1 cells. The assay is classed as cell-based, human. As to the method: Basal media were purchased from HyClone, fetal bovine serum (FBS) was from PeakSerum (Ps-FB3, lot 293Q16), and Glutamax (Glu) and Penicillin/Streptomycin (P/S) were from GIBCO. NCC-CDS-X1 (CIC-DUX4 sarcoma cell line, a generous gift from Tadashi Kondo) cell line was cultured in RPMI with 10% FBS, Glu and P/S, Kitra-SRS (CIC-DUX4 sarcoma cell line, a generous gift from Hidetatsu Otani), 3T3, 293T and C2C12 cell lines were cultured in DMEM/10% FBS/Glu/P/S. The immortalized human myoblast LHCN-M2 cell line was cultured in proliferation medium: F10 supplemented with 20% FBS, 2-mercaptoethanol 1× (GIBCO), 10^−9 M dexamethasone (Sigma), 10 ng/mL bFGF (Peprotech), and Glu/P/S. All cells were cultured at 37° C. in a 5% CO2 atmosphere.
Cell lines were plated in a 96 well dish (1×10^5 cells/well), and the following day were treated with iP300w or its stereoisomers. ATP assays were performed using CellTiter-Glo® Luminescent Cell Viability Assay (Promega) according to the manufacturer's instructions. Luminescence was analyzed on POLARstar Optima Microplate Reader (BMG Labtech, Offenburg, Germany).
The activity of the various iP300w stereoisomers against NCC-CDS-X1 cells was evaluated. Cultures were treated with serial dilutions, ranging from 0.003 μM to 3.0 μM, for up to 96 hours. In cells treated with iP300w, a significant decrease in cell viability was evident at the lowest concentration (0.003 μM) at 48 and 96 hours (FIG. 3A). The effect was dose- and time-dependent. […] (FIG. 2B and FIG. 9).

Assay [2] concerns CIC-DUX4 target genes ETV1, 4, and 5. Kind of assay: RT-qPCR for CIC-DUX4 target genes in NCC-CDS-X1 cells. The conditions noted are these: NCC-CDS-X1, 24 hours, highest concentration. The assay is classed as cell-based, human. As to the method:
RNA was extracted using an RNA extraction kit (Zymo) and cDNA was made using 0.5 μg total RNA with oligo-dT primer and Verso cDNA Synthesis Kit (Thermo Scientific) following the manufacturer's instructions. qPCRs were performed by using Premix Ex Taq (Probe qPCR, Takara) or SYBR-green. Gene expression levels were normalized to that of GAPDH and analyzed with 7500 System Software using the ACT method (Applied Biosystems). RNA-seq library preparation was done with 500 ng total RNA from NCC-CDS-X1 cells treated for 4 or 24 hours with iP300w (0.3 μM) using the Swift Rapid RNA Library Kit (SwiftBioscience). 36 base paired-end sequencing was performed on an Illumina NextSeq instrument at the University of Minnesota Genomics Center.
Next, the effect of the stereoisomers on the CIC-DUX4 target genes in cells cultured with the compounds for 24 hours was analyzed.

The subject of the next assay is p300 and CBP. The conditions noted are these: in vitro and in vivo; cited from earlier work.
For assay [3], the system named is wide spectrum of cancer cell lines. Conditions: cited from earlier work.
Another assay relates to Kitra-SRS cells (IGF-1R). The conditions noted are these: cited from earlier work.
For the next assay, the system named is CDS cell lines. The conditions noted are these: screens of FDA-approved anticancer molecules; cited from earlier work.

Consider `CNC(=O)Nc1ccc2c(c1)CC[C@@]21OC(=O)N(CC(=O)N(Cc2ccc(F)cc2)[C@@H](C)C(F)(F)F)C1=O` [A-485, reference compound], for which the “fold less potent than iP300w (from IC50 values)” value in assay [1] (NCC-CDS-X1, IC50 at 48 and 96 hours) is reported as “approximately 200 fold”. Further, the “activity on cell viability” value in assay [1] (NCC-CDS-X1, up to 96 hours, 0.003 to 3.0 μM) was “also showed activity, but at higher concentrations”. For the same compound, in assay [2], the “effect on ETV4 expression at the highest concentration” value is “notable effect on ETV4”. The “inhibition of acetylation by p300 and CBP” value with p300 and CBP was “inhibit acetylation by p300 and CBP both in vitro and in vivo”. Further, the “efficacy against melanoma and NUT midline carcinoma” value in assay [3] (high MITF-expressing melanoma cell lines and NUT midline carcinoma) is “effective against high MITF-expressing melanoma cell lines”. Also, the “effect on proliferation of cancer cell lines” value in assay [3] (more prominently in those of hematopoietic origin) is recorded as “suppress proliferation of a wide spectrum of cancer cell lines”.

Turning to `C[C@]1(O)C[C@@H](c2nc(-c3ccc4ccc(-c5ccccc5)nc4c3)c3c(N)nccn32)C1` [linsitinib], the “effect on cell proliferation” value in the assay with Kitra-SRS cells (IGF-1R) is “reduced cell proliferation”.

As for `C[C@@H](Oc1cc(-c2cnn(C3CCNCC3)c2)cnc1N)c1c(Cl)ccc(F)c1Cl` [crizotinib], the “effectiveness in vitro on CDS cell lines” value with CDS cell lines is on record as “some degree of effectiveness in vitro”.

With `CC(C)C[C@H](NC(=O)[C@H](Cc1ccccc1)NC(=O)c1cnccn1)B(O)O` [bortezomib], the “effectiveness in vitro on CDS cell lines” value with CDS cell lines is listed as “some degree of effectiveness in vitro”.
